Tested on: Staphylococcus aureus
Assay: Microorganism kill against airborne Staphylococcus aureus, pre and post filtration
Format: cell-based
Settings: TEG pipetted onto hotplate @ 250° C.

OCCOCCOCCO [TEG, triethylene glycol]
Microorganism kill against Staphylococcus aureus (log10 reduction) (Post-Filtration): 3 log10 reduction
Microorganism kill against Staphylococcus aureus, time to 3 log10 reduction (Post-Filtration): in 33 min
Microorganism kill against Staphylococcus aureus (log10 reduction) (Pre-Filtration): 3 log10 reduction
Microorganism kill against Staphylococcus aureus, time to 3 log10 reduction (Pre-Filtration): in 18.2 min
